The values that follow come from patent US12559487B2, “Crosslinked optically active secondary amine derivative” (Sumitomo Pharma Co., Ltd., priority 2019, dated 2026).

Where two headings read alike, the source gives them in different places.

In data set [1] the test system is MV4; 11 cells. Nature of the data set: Test 1: Test for evaluating the inhibition of cell proliferation. The data set is classed as cell-based. Conditions: for IC50: cultured for 7 days, PrestoBlue cell viability. The procedure: MV4; 11 cells were obtained from American Type Culture Collection (ATCC). The cells were cultured at 37° C. in the presence of 5% CO2 in RPMI 1640 medium containing 10% fetal bovine serum and 1% penicillin/streptomycin.
The cells were plated to a 96-well plate in 2000 cells/well, each test compound was added thereto to adjust the final concentration of DMSO to 0.1% of DMSO, and the cells were cultured for 7 days. After the cultivation, the cell viability was calculated with PrestoBlue™ Cell Viability Reagent (Invitrogen, A13261).

In data set [2] the target is T1, hERG (human Ether-a-go-go Related Gene) (Homo sapiens (Human), UniProt Q12809). Nature of the data set: Test 2: Test for the hERG inhibition (QPatch HT, CHO cell strain stably expressing hERG). Conditions: for hERG/MV4; 11: hERG IC50 divided by MV4, 11 proliferation IC50; for gap between concentration inhibiting 50% of MV4; 11 proliferation and concentration inhibiting 50% of hERG current: hERG IC50 vs MV4, 11 IC50; for IC50: CHO cells stably expressing hERG, QPatch HT. In general terms: The hERG channel carries a current that helps repolarise heart muscle cells.

The target in data set [3] is T1, hERG (human Ether-a-go-go Related Gene).
The mark [4] stands for this setting: read-out: hERG IC50, hERG current.

T1 sequence (Q12809 whole entry): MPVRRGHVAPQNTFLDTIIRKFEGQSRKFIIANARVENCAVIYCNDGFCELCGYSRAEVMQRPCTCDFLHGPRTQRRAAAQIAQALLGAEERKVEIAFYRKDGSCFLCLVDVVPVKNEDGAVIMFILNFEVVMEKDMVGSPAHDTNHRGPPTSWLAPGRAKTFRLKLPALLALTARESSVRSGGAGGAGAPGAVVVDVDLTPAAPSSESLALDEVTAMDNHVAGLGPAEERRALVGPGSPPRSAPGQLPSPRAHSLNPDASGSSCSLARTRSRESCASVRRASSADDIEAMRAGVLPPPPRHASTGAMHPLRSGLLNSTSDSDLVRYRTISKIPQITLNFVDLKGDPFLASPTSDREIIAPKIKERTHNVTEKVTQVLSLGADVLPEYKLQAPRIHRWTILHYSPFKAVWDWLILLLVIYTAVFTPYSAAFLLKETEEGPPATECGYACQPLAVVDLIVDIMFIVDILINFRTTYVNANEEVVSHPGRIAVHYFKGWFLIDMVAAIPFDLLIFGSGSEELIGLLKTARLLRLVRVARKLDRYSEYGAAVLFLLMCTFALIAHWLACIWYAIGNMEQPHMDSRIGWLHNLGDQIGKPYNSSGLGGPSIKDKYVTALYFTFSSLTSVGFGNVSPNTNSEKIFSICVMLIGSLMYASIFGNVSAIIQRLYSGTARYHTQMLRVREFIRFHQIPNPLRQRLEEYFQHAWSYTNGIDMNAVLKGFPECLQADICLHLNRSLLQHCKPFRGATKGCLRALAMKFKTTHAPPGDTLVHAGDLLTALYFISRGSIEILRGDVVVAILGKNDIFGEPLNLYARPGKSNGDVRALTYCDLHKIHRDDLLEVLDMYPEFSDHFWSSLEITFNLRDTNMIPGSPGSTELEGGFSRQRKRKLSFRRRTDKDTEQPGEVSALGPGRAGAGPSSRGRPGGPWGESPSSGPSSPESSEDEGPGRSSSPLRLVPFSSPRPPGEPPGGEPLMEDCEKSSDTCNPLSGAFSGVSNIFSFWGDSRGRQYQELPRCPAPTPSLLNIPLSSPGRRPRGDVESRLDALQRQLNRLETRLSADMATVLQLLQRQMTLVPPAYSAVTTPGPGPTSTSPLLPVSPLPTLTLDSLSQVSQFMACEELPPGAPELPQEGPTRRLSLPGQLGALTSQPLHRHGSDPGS

The IC50 is the midpoint of a concentration-inhibition curve. On to “2-(3-{1-[(3S)-2-azabicyclo[2.2.2]octane-3-carbonyl]piperidin-4-yl}-1H-pyrrolo[2,3-c]pyridin-1-yl)-5-fluoro-N-methyl-N-(propan-2-yl)benzamide [Example 4]”, for which, in data set [1], the midpoint of inhibition, the IC50, lay at 73 nM. In data set [1] (summary in words), the “cell proliferation inhibition activity” value is recorded as “potent cell proliferation inhibition activity”. Further, in data set [2], the “hERG/MV4; 11” value is reported as above 1370; the “gap between concentration inhibiting 50% of MV4; 11 proliferation and concentration inhibiting 50% of hERG current” value was “more than 100 fold”. In data set [2] (setting [4]), the IC50 was above 100000 nM. Also, in data set [2] (text prints RS4, 11 cells (table is MV4; 11)), the “gap between concentration inhibiting 50% of RS4; 11 proliferation and concentration inhibiting 50% of hERG current” value is listed as “more than 1000 fold”.

In the case of “5-fluoro-2-(3-{1-[(1S,3S,4S,5S)-5-fluoro-2-azabicyclo[2.2.2]octane-3-carbonyl]azepan-4-yl}-1H-pyrrolo[2,3-c]pyridin-1-yl)-N-methyl-N-(propan-2-yl)benzamide [Example 12]”, the “hERG/MV4; 11” value in data set [3] was above 1050. For the same compound, in data set [1], the IC50 is below 30 nM.

“2-[3-({1-[(3S)-2-azabicyclo[2.2.2]octane-3-carbonyl]piperidin-4-yl}methyl)-1H-pyrrolo[2,3-c]pyridin-1-yl]-5-fluoro-N-methyl-N-(propan-2-yl)benzamide [Example 27]”: in data set [3], the “hERG/MV4; 11” value is listed as above 128. For the same compound, the IC50 in data set [1] was found to be 780 nM.

As to `CC(C)N(C(=O)c1cc(F)ccc1-n1cc(C2=CCCN(C(=O)[C@H]3NC4CCC3CC4)CCC2)c2ccncc21)C(C)C` [Example 14, 2-(3-{1-[(3S)-2-azabicyclo[2.2.2]octane-3-carbonyl]-1,2,3,4,7,8-hexahydroazocin-5-yl}-1H-pyrrolo[2,3-c]pyridin-1-yl)-5-fluoro-N,N-di(propan-2-yl)benzamide], the IC50 in data set [1] (Homo sapiens, MV4-11, 168 h) stood at 2200 nM; in data set [2] (hERG IC50, hERG current) it was 3200 nM. Further, the “hERG/MV4; 11” value in data set [2] came to 1.5.

As for “(3S)—N-[(1S)-3-(1-{4-fluoro-2-[methyl(propan-2-yl)carbamoyl]phenyl}-1H-pyrrolo[2,3-c]pyridin-3-yl)cyclohexyl]-2-azabicyclo[2.2.2]octane-3-carboxamide [Example 30]”, the “hERG/MV4; 11” value in data set [3] is recorded as 13. Also, in data set [1], the IC50 is 550 nM.

Consider `CC(C)N(C)C(=O)c1cc(F)ccc1-n1cc(C2CCCN(C(=O)[C@H]3N[C@@H]4CC[C@H]3C4)CC2)c2ccncc21` (stereo partly drawn) [Example 10, 2-(3-{1-[(1R,3S,4S)-2-azabicyclo[2.2.1]heptane-3-carbonyl]azepan-4-yl}-1H-pyrrolo[2,3-c]pyridin-1-yl)-5-fluoro-N-methyl-N-(propan-2-yl)benzamide], for which, in data set [2], the “hERG/MV4; 11” value is 621; the “gap between concentration inhibiting 50% of MV4; 11 proliferation and concentration inhibiting 50% of hERG current” value is given as “more than 100 fold”.

With “5-fluoro-N-methyl-2-(3-{1-[(1S,3S,4R)-5-methylidene-2-azabicyclo[2.2.1]heptane-3-carbonyl]azepan-4-yl}-1H-pyrrolo[2,3-c]pyridin-1-yl)-N-(propan-2-yl)benzamide [Example 13]”, the “hERG/MV4; 11” value in data set [3] was found to be 198. Also, in data set [1], half-maximal inhibition (IC50) was put at 130 nM.

Regarding `CC(C)N(C(=O)c1cc(F)ccc1-n1cc(C2=CC3CCC(C2)N3C(=O)[C@H]2NC3CCC2CC3)c2ccncc21)C(C)C` (single isomer, unassigned) [Example 19a], the IC50 in data set [1] was below 30 nM; in data set [2] (hERG IC50, hERG current), 6000 nM. Moreover, the “hERG/MV4; 11” value in data set [2] is above 200.

“2-(3-{1-[(3S)-2-azabicyclo[2.2.2]octane-3-carbonyl]-1,2,3,6-tetrahydropyridin-4-yl}-1H-pyrrolo[2,3-c]pyridin-1-yl)-5-fluoro-N,N-di(propan-2-yl)benzamide [Example 3]”: in data set [3], the “hERG/MV4; 11” value came out at 489. Further, it took 36 nM to reach half-maximal inhibition in data set [1] (IC50).

With “2-(3-{8-[(3S)-2-azabicyclo[2.2.2]octane-3-carbonyl]-8-azabicyclo[3.2.1]octan-3-yl}-1H-pyrrolo[2,3-c]pyridin-1-yl)-5-fluoro-N-methyl-N-(propan-2-yl)benzamide [Example 20]”, the “hERG/MV4; 11” value in data set [3] is 373. The compound also came in with an IC50 in data set [1] of 85 nM.

In data set [1], “5-fluoro-2-(3-{8-[(1S,3S,4R)-5-methylidene-2-azabicyclo[2.2.2]octane-3-carbonyl]-8-azabicyclo[3.2.1]octan-3-yl}-1H-pyrrolo[2,3-c]pyridin-1-yl)-N,N-di(propan-2-yl)benzamide [Example 23]” displayed an IC50 of 280 nM.

For `CC(C)N(C(=O)c1cc(F)ccc1-n1cc(C2CCN(C(=O)[C@H]3NC4CCC3CC4)CC2)c2ccncc21)C(C)C` [Example 1, 2-(3-{1-[(3S)-2-Azabicyclo[2.2.2]octane-3-carbonyl]piperidin-4-yl}-1H-pyrrolo[2,3-c]pyridin-1-yl)-5-fluoro-N,N-di(propan-2-yl)benzamide], the IC50 in data set [1] (Homo sapiens, MV4-11, 168 h) stood at 260 nM; in data set [2] (hERG IC50, hERG current), 30000 nM. The “hERG/MV4; 11” value in data set [2] is reported as 114. In addition, in data set [2], the “gap between concentration inhibiting 50% of MV4; 11 proliferation and concentration inhibiting 50% of hERG current” value is recorded as “more than 100 fold”.

The compound “2-(3-{1-[(3S)-2-azabicyclo[2.2.2]octane-3-carbonyl]-1,2,3,6-tetrahydropyridin-4-yl}-1H-pyrrolo[2,3-c]pyridin-1-yl)-5-fluoro-N-methyl-N-(propan-2-yl)benzamide [Example 2]” displayed an IC50 in data set [1] of 530 nM. Also, in data set [2], the “hERG/MV4; 11” value is given as 102; the “gap between concentration inhibiting 50% of MV4; 11 proliferation and concentration inhibiting 50% of hERG current” value was “more than 100 fold”. Besides, the IC50 in data set [2] (setting [4]) worked out at 54000 nM.

For “2-[3-({4-[(3S)-2-azabicyclo[2.2.2]octane-3-carbonyl]piperazin-1-yl}methyl)-1H-pyrrolo[2,3-c]pyridin-1-yl]-5-fluoro-N-methyl-N-(propan-2-yl)benzamide [Example 28]”, in data set [3], the “hERG/MV4; 11” value is above 31. The IC50 in data set [1] came out at 3200 nM.

For the compound `C=C1C[C@@H]2CC[C@H]1[C@@H](C(=O)N1CCCC(c3cn(-c4ccc(F)cc4C(=O)N(C)C(C)C)c4cnccc34)CCC1)N2` [Example 16, 5-fluoro-N-methyl-2-(3-{1-[(1S,3S,4R)-5-methylidene-2-azabicyclo[2.2.2]octane-3-carbonyl]azocan-5-yl}-1H-pyrrolo[2,3-c]pyridin-1-yl)-N-(propan-2-yl)benzamide], the concentration for half-maximal inhibition (IC50) in data set [1] came to 240 nM.

As for “2-(3-{2-[(1R,3S,4S)-2-azabicyclo[2.2.1]heptane-3-carbonyl]-2-azaspiro[3.4]octan-6-yl}-1H-pyrrolo[2,3-c]pyridin-1-yl)-5-fluoro-N-methyl-N-(propan-2-yl)benzamide [Example 24]”, the midpoint of inhibition in data set [1], the IC50, lay at 58 nM.

Turning to “2-(3-{1-[(3S)-2-azabicyclo[2.2.2]octane-3-carbonyl]pyrrolidin-3-yl}-1H-pyrrolo[2,3-c]pyridin-1-yl)-5-fluoro-N,N-di(propan-2-yl)benzamide [Example 8]”, the “hERG/MV4; 11” value in data set [3] is recorded as 404. In data set [1], the IC50 was found to be 24 nM.

Regarding `C=C1C[C@@H]2CC[C@H]1[C@@H](C(=O)N1CCCC(c3cn(-c4ccc(F)cc4C(=O)N(C(C)C)C(C)C)c4cnccc34)CCC1)N2` [Example 18, 5-fluoro-2-(3-{1-[(1S,3S,4R)-5-methylidene-2-azabicyclo[2.2.2]octane-3-carbonyl]azocan-5-yl}-1H-pyrrolo[2,3-c]pyridin-1-yl)-N,N-di(propan-2-yl)benzamide], the IC50 in data set [1] was found to be 730 nM.

In turn, “2-(3-{1-[(1S,3S,4R,6S)-6-(cyclopropylmethyl)-2-azabicyclo[2.2.2]octane-3-carbonyl]piperidin-4-yl}-1H-pyrrolo[2,3-c]pyridin-1-yl)-5-fluoro-N,N-di(propan-2-yl)benzamide [Example 6]” gave an IC50 in data set [1] below 3 nM.

As for `CC(C)N(C(=O)c1cc(F)ccc1-n1cc(C2=CC3CCC(C2)N3C(=O)[C@H]2NC3CCC2CC3)c2ccncc21)C(C)C` (single isomer, unassigned) [Example 19b], the IC50 in data set [1] came to 140 nM; in data set [2] (hERG IC50, hERG current) it was 4500 nM. In addition, the “hERG/MV4; 11” value in data set [2] is on record as 32.

In the case of “2-[3-({4-[(3S)-2-azabicyclo[2.2.2]octane-3-carbonyl]-1,4-diazepan-1-yl}methyl)-1H-pyrrolo[2,3-c]pyridin-1-yl]-5-fluoro-N-methyl-N-(propan-2-yl)benzamide [Example 29]”, in data set [3], the “hERG/MV4; 11” value is recorded as above 34. Further, the midpoint of inhibition in data set [1], the IC50, lay at 2900 nM.

Turning to “2-(3-{1-[(3S)-2-azabicyclo[2.2.2]octane-3-carbonyl]piperidin-3-yl}-1H-pyrrolo[2,3-c]pyridin-1-yl)-5-fluoro-N-methyl-N-(propan-2-yl)benzamide [Example 9]”, the “hERG/MV4; 11” value in data set [3] is 22. In data set [1], the IC50 turned out to be 1700 nM.

“5-fluoro-N-methyl-2-(3-{8-[(1S,3S,4R)-5-methylidene-2-azabicyclo[2.2.2]octane-3-carbonyl]-8-azabicyclo[3.2.1]octan-3-yl}-1H-pyrrolo[2,3-c]pyridin-1-yl)-N-(propan-2-yl)benzamide [Example 21]” registered an IC50 in data set [1] of 430 nM.

Take `CC(C)N(C)C(=O)c1cc(F)ccc1-n1cc(C2CCCN(C(=O)[C@H]3N[C@@H]4CC[C@H]3C4)CC2)c2ccncc21` (mixture of isomers) [Example 10, 2-(3-{1-[(1R,3S,4S)-2-azabicyclo[2.2.1]heptane-3-carbonyl]azepan-4-yl}-1H-pyrrolo[2,3-c]pyridin-1-yl)-5-fluoro-N-methyl-N-(propan-2-yl)benzamide]: the IC50 in data set [1] (Homo sapiens, MV4-11, 168 h) is 89 nM; in data set [2] (hERG IC50, hERG current), 55000 nM.
